Source: ChEMBL document CHEMBL1144673, “Discovery of novel alpha-glucosidase inhibitors based on the virtual screening with the homology-modeled protein structure” (Bioorg Med Chem, 2008)

What follows are compounds tested against Alpha-glucosidase MAL12 (Saccharomyces cerevisiae S288c) (UniProt P53341) (assay: Inhibition of bakers yeast alpha-glucosidase at 50 uM).
Chain of Alpha-glucosidase MAL12 (Saccharomyces cerevisiae S288c) (P53341 whole entry): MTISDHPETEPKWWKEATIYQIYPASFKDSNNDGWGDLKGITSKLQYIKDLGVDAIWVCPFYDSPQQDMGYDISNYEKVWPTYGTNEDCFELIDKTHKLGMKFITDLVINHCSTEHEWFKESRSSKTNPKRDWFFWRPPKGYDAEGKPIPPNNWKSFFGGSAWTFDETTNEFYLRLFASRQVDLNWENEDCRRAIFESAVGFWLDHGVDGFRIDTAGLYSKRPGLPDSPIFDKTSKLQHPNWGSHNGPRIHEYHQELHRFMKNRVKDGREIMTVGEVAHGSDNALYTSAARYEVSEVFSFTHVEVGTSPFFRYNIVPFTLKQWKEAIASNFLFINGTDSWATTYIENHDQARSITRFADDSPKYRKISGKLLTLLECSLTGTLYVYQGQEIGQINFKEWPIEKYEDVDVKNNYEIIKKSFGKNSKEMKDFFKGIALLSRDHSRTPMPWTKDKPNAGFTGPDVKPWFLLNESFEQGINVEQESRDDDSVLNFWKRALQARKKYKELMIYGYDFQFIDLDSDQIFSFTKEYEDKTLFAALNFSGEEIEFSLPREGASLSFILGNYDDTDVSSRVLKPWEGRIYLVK
With Cc1ccc(-n2c(SCC(=O)Nc3ccc(F)c(F)c3)nnc2-c2ccccc2)cc1 the inhibition was 63.1%.
For N#CC1=C(N)n2c(s/c(=C\c3ccccc3F)c2=O)=C(C(N)=O)C1c1ccccc1F (stereo not drawn), the inhibition was 62.2%.
Compound O=C1NC(=O)N(c2ccccc2F)C(=O)/C1=C\c1ccccc1OCc1ccc(C(=O)O)cc1 has an inhibition of 54%.
In the case of COc1ccc(N2C(=O)NC(=O)/C(=C\c3cn(CC(=O)Nc4ccccc4)c4ccccc34)C2=O)cc1, the inhibition is reported as 50.6%.
O=C(Nc1ccccc1O)c1ccc(Oc2cccc(C(=O)Nc3ccccc3O)c2)cc1 gave an inhibition of 70.1%.
Work on Cc1ccc(/N=c2\cc(-c3ccc4c(c3)OCO4)oc3ccc(O)cc23)cc1C yielded an inhibition of 58%.
For O=C(Nc1nccs1)c1c(O)c2ccccc2n(Cc2ccccc2)c1=O, the inhibition was 52.3%.
O=C(CSc1nnc(COc2cccc3cccnc23)n1-c1ccccc1)c1ccc(Cl)cc1 showed an inhibition of 66.5%.
With Oc1ccc(-c2nnc(Nc3cccc(O)c3)c3ccccc23)cc1 the inhibition was 61.4%.
In the case of N#CC1=C(N)n2c(s/c(=C\c3ccc(O)cc3)c2=O)=C(C(N)=O)C1c1ccc(O)cc1 (stereo not drawn), the inhibition is reported as 59.2%.
Compound O=C(Cn1c(=O)n(CC(=O)NCc2ccccc2)c2cc(Cl)ccc21)NCc1ccccc1 has an inhibition of 62.4%.
Cn1cc(/C=C/C(=O)NC(=O)c2ccccc2O)c2ccccc21 showed an inhibition of 71.4%.
Work on O=C(CSc1nc2ccccc2c(=O)n1-c1ccccc1)NCc1ccccc1 yielded an inhibition of 50.9%.
